Laboratory results: US4845102A, “Therapeutic agent for the treatment of peptic ulcer disease” (Hoechst Japan Limited, priority 1986, dated 1989)

Columns and labels:
[1] = test system: ethanol-induced gastric ulcer; test: Protective effect on ethanol-induced gastric ulcer in rats; assay type: in vivo, Male Sprague-Dawley rats; conditions: for Ulcer index: mean ± S.E.
Description: 1.2 Protective effect on ethanol-induced gastric ulcer in rats
Male Sprague-Dawley rats weighing 250-300 g were used in groups of 5-21. After fasting overnight, the animals were given orally the compounds. Thirty minutes later they received absolute ethanol (1 ml/body) orally and were sacrificed after 60 minutes. The stomach was removed and examined for erosions. The ulcer index was obtained in the same way as under 1.1.

[2] = in vivo; conditions: mouse, mice
[3] = test system: stress-induced gastric ulcer; test: Protective effect on gastric ulcer induced by restraint plus water-immersion stress in rats; assay type: in vivo, Male Sprague-Dawley rats; conditions: for Ulcer index: mean ± S.E.
Description: 1.1 Protective efrfect on gastric ulcer induced by restraint plus water-immersion stress in rats
Male Sprague-Dawley rats weighing 250-300 g wer eused in groups of 5-24. The animals were given the compounds by the oral route after fastin overnight. Immediately, under light ether anesthesia they were placed in a restraint box and immersed in water at 20° C. for 6 to 7 hours. Then the animals were sacrificed, and their stomachs were isolated, inflated with 4 ml of 1 % formalin for 10 minutes, opened along the greater cruvature, and examined for the rpesence of agstric erosions. The longest axis of each erosion induced on the glandular section of the stomach was measured, and the sum of the lengths was defined as an ulcer index.

[4] = test system: rats; test: 3-month oral toxicity study in rats; assay type: in vivo; conditions: 3 months
Description: Compound 2 was administered orally to rats at 150 and 50 mg/kg/day for 3 months. This study included: observation of toxic signs during the treatment; macroscopic and microscopic examinations of main organs including the brain, heart, liver, kidney, bone marrow, adrenal, and lung; and biochemical tests of the blood and urine.

[5] = Toxicity, general statements; conditions: in vivo
[6] = test system: peptic ulcer disease; test: Antiulcer effect, general statements; conditions: in vivo
[7] = test system: gastric hemorrhage; test: Inhibitory effect on gastric hemorrhage in rats (pylorus ligation, 2-deoxy-D-glucose plus indomethacin); assay type: in vivo, Male Sprague-Dawley rats; conditions: for Amount of hemoglobin: mean ± S.E.; for effect on gastric hemorrhage (in words): rats
Description: 1.3 Inhibitory effect on gastric hemorrhage in rats
The method of Maeda-Hagiwara and Watanabe (Eur. J. Pharmacol. 89, 243-250, 1983) was used. Male Sprague-Dawley rats weighing 250-300 g were employed in groups of 10-14. After 24 hours fasting, the pylorus was ligated under light ether anesthesia. Then, 200 mg/kg of 2-deoxy-D-glucose was administered intravenously in combination with 40 mg/kg of indomethacin suspended in 0.5 % carboxymethylcellulose by the subcutaneous route. After 1 hour the test compounds wer einjected intraperitoneally. Two hours later, the animals were exsanguinated under ether anesthesia and their stomachs were isolated. Gastric juice was collected and filtered. The amount of discharged blood was expressed as that of hemoglobin in mg per rat.

[8] = c.f. U.S. Pat. No. 4,289,776; cited from earlier work
[9] = in vivo; conditions: rat, rats
[10] = test system: peptic ulcer disease; conditions: Vorobyev and Samsonov, Ter. Ark. 57, 52-55, 1985; cited from earlier work
[11] = Table 5 (efficacy comparison), 10 mg/kg po
[12] = ip, intraperitoneal administration
[13] = Table 3 (efficacy comparison), 10 mg/kg po

| Structure (SMILES) | Inhibition [1, 11] | Ulcer index [1, 11] | LD50 [2, 12] | Inhibition [3, 13] | Ulcer index [3, 13] | Amount of hemoglobin ([7]; 25 mg/kg i.p.) | Amount of hemoglobin ([7]; 50 mg/kg i.p.) | effect on gastric hemorrhage (in words) [7] | Inhibition ([1]; Table 4, 10 mg/kg po) | Ulcer index ([1]; Table 4, 10 mg/kg po) | Inhibition ([1]; Table 4, 25 mg/kg po) | Ulcer index ([1]; Table 4, 25 mg/kg po) | Inhibition ([1]; Table 4, 50 mg/kg po) | Ulcer index ([1]; Table 4, 50 mg/kg po) | Inhibition ([3]; Table 2, 10 mg/kg po) | Ulcer index ([3]; Table 2, 10 mg/kg po) | Inhibition ([3]; Table 2, 25 mg/kg po) | Ulcer index ([3]; Table 2, 25 mg/kg po) | also measured |
| --- | --- | --- | --- | --- | --- | --- | --- | --- | --- | --- | --- | --- | --- | --- | --- | --- | --- | --- | --- |
| CCn1cnc2c1c(=O)n(CCCCC(C)=O)c(=O)n2C [Compound 1] | 84.6% | 25.3 ± 10.9 mm | 250 to 500 mg/kg | 77.2% | 4.5 ± 0.9 mm | – | – | – | – | – | – | – | – | – | – | – | – | – | – |
| CCCn1cnc2c1c(=O)n(CCCCC(C)=O)c(=O)n2C [Compound 2, 1,2,3,6-tetrahydro-3-methyl-1-(5-oxohexyl)-7-propyl-purine-2,6-dione] | 86.9% | 21.6 ± 4.6 mm | 296 mg/kg | 56.3% | 8.6 ± 2.3 mm | 14.4 ± 1.4 mg/rat | 12.5 ± 1.6 mg/rat | inhibitory effects on gastric hemorrhage | 61.5% | 51.0 ± 13.2 mm | 75.4% | 32.6 ± 9.1 mm | 89.7% | 13.6 ± 9.3 mm | 64.3% | 13.3 ± 5.4 mm | 75.6% | 9.1 ± 3.1 mm | toxic signs, macroscopic and microscopic organ examinations, biochemical tests of blood and urine ([4]; 50 mg/kg/day): no abnormalities at either level of treatment; toxic signs, macroscopic and microscopic organ examinations, biochemical tests of blood and urine ([4]; 150 mg/kg/day): no abnormalities at either level of treatment except that slight salivation occurred at 150 mg/kg/day; toxicity (in words) [5]: low toxicity; antiulcer effect (in words) [6]: improving effects on gastric ulcer; Amount of hemoglobin ([7]; 12.5 mg/kg i.p.): 27.0 ± 3.0 mg/rat; pharmacological effects shown previously (in words) [8]: dilate cerebral blood vessels, improve cerebral energy metabolism, red blood cell deformability, and cerebral edema, and decrease blood viscosity; LD50 ([9]; intravenous injection): 180 mg/kg; LD50 ([9]; oral dosing): 1150 mg/kg; LD50 ([2]; intravenous injection): 168 mg/kg; LD50 ([2]; oral dosing): 900 mg/kg; Inhibition ([3]; Table 2, 5 mg/kg po): 39.4%; Ulcer index ([3]; Table 2, 5 mg/kg po): 22.6 ± 9.8 mm; effectiveness relative to pentoxifylline in improving stress-induced gastric ulcers ([3]; versus pentoxifylline): 2 to 3 times |
| CCCn1cnc2c1c(=O)n(CCCC(C)=O)c(=O)n2C [Compound 3] | – | – | 300 to 600 mg/kg | 67.0% | 6.5 ± 1.6 mm | – | – | – | – | – | – | – | – | – | – | – | – | – | – |
| CC(=O)CCCCn1c(=O)c2c(ncn2C)n(C)c1=O [Pentoxifylline, 1,2,3,6-tetrahydro-3,7-dimethyl-1-(5-oxohexyl)-purine-2,6-dione, reference compound] | 78.8% | 34.9 ± 10.9 mm | – | 12.7% | 17.2 ± 5.6 mm | 19.6 ± 2.0 mg/rat | 17.3 ± 2.3 mg/rat | did not have a statistically significant effect | 50.3% | 65.8 ± 12.1 mm | 63.9% | 47.8 ± 15.3 mm | 85.9% | 18.7 ± 6.2 mm | 25.8% | 24.4 ± 4.0 mm | 52.0% | 15.8 ± 4.1 mm | antiulcer effect reported in the literature (in words) [10]: antiulcer effects; Inhibition ([3]; Table 2, 50 mg/kg po): 83.9%; Ulcer index ([3]; Table 2, 50 mg/kg po): 5.3 ± 1.2 mm |
